Experimental findings from ChEMBL document CHEMBL4190346, “Structure-based design, synthesis, and biological evaluation of withaferin A-analogues as potent apoptotic inducers” (Eur J Med Chem, 2017) are described below.

pIC50: −log10 of the molar value. Numbered stars: 1 amine (or outer) side, 2 acyl side, 3 side chain; on linkers, the order of the positions; unused ones are H or OH. Bridge positions count the residues as written; N and C are the ends. Square brackets hold non-standard residues; d marks the D form. Peptide text beside a SMILES is read from it. I, II: the chains in the order shown. Actinocin(1to9) = Cc1c2oc3c(C)ccc(C(=O)[*:2])c3nc-2c(C(=O)[*:1])c(N)c1=O; NMeV = CN[C@H](C(=O)O)C(C)C; Sar = CNCC(=O)O

In test [1] the test system is HeLa. The experiment in a line: Cytotoxicity against human HeLa cells assessed as reduction in cell viability using compound addition to cell culture cells in log phase of growth and incubated for 48 hrs by MTT assay. Particulars: Homo sapiens, HeLa, 48 h; read-out: IC50. The test is classed as functional, cell-based. Background: Tetrazolium assays rely on reduction of a dye to a coloured formazan, in cell work by metabolically active cells.

Test [2] deals with MCF7. The experiment in a line: Cytotoxicity against human MCF7 cells assessed as reduction in cell viability using compound addition to cell culture cells in log phase of growth and incubated for 48 hrs by MTT assay. The conditions noted are these: Homo sapiens, MCF7, 48 h; read-out: IC50. The test is classed as functional, cell-based.
Test [3] deals with MCF7. The experiment in a line: Cytotoxicity against human MCF7 cells assessed as reduction in cell viability using compound addition to cell culture cells in lag phase of growth and incubated for 48 hrs by MTT assay. The class given is functional, cell-based. Particulars: Homo sapiens, MCF7, 48 h; read-out: IC50.
For test [4], the system named is A549. The experiment in a line: Cytotoxicity against human A549 cells assessed as reduction in cell viability using compound addition to cell culture cells in log phase of growth and incubated for 48 hrs by MTT assay. The test is classed as functional, cell-based. Particulars: Homo sapiens, A549, 48 h; read-out: IC50.
Test [5] has as its system A549. The experiment in a line: Cytotoxicity against human A549 cells assessed as reduction in cell viability using compound addition to cell culture cells in lag phase of growth and incubated for 48 hrs by MTT assay. The test is classed as functional, cell-based. Particulars: Homo sapiens, A549, 48 h; read-out: IC50.
Test [6] has as its system Vero. The experiment in a line: Cytotoxicity against African green monkey Vero cells assessed as reduction in cell viability using compound addition to cell culture cells in lag phase of growth and incubated for 48 hrs by MTT assay. The test is classed as cell-based, Chlorocebus sabaeus. Particulars: Chlorocebus sabaeus, Vero, 48 h; read-out: IC50.
Test [7] deals with Vero. The experiment in a line: Cytotoxicity against African green monkey Vero cells assessed as reduction in cell viability using compound addition to cell culture cells in log phase of growth and incubated for 48 hrs by MTT assay. The class given is cell-based, Chlorocebus sabaeus. The conditions noted are these: Chlorocebus sabaeus, Vero, 48 h; read-out: IC50.
Test [8] relates to HeLa. The experiment in a line: Cytotoxicity against human HeLa cells assessed as reduction in cell viability using compound addition to cell culture cells in lag phase of growth and incubated for 48 hrs by MTT assay. The conditions noted are these: Homo sapiens, HeLa, 48 h; read-out: IC50. The test is classed as functional, cell-based.

One may read the pIC50 as −log10 of the IC50, conventionally taken in molar units. On to `CC1=C(CO)C(=O)O[C@@H]([C@@H](C)[C@H]2CC[C@H]3[C@@H]4C[C@@H](O)[C@]56ON[C@H](CC(=O)[C@]5(C)[C@H]4CC[C@]23C)[C@@H]6O)C1`, for which the pIC50 in the test with HeLa [1], in the test on MCF7 [2], in the test with MCF7 [3], with A549 [4], in the test with A549 [5] and in the test with Vero [6] was < 4.40 each time. For the same compound, the pIC50 with Vero [7] and with HeLa [8] was < 4.40 in each case.

For `CC1=C(CO)C(=O)O[C@@H]([C@@H](C)[C@H]2CC[C@H]3[C@@H]4C[C@H]5O[C@]56[C@@H](O)[C@@H](O)CC(=O)[C@]6(C)[C@H]4CC[C@]23C)C1` [VISCOSALACTONE B], the pIC50 in the test on HeLa [1], in the test with MCF7 [2], in the test on MCF7 [3], with A549 [4], in the test on A549 [5] and in the test with Vero [6] was < 4.40 throughout. Further, the pIC50 with Vero [7] and with HeLa [8] was < 4.40 throughout.

As to `C=C1C(=O)O[C@@H]([C@@H](C)[C@H]2CC[C@H]3[C@@H]4C[C@H]5O[C@]56[C@@H](O)[C@@H](OC)CC(=O)[C@]6(C)[C@H]4CC[C@]23C)C=C1C`, the pIC50 in the test with HeLa [1] is < 4.40; in the test with MCF7 [2], 4.64; with MCF7 [3], < 4.40; with A549 [4], < 4.40; in the test on A549 [5], < 4.40; in the test on Vero [6], < 4.40. Also, the pIC50 with Vero [7] and in the test on HeLa [8] was < 4.40 throughout.

Consider `Sc1ncnc2nc[nH]c12` [MERCAPTOPURINE ANHYDROUS], for which the pIC50 in the test on Vero [7] is < 3.93.

Turning to `Cc1c2oc3c(C)ccc(C(=O)N[C@@H]4C(=O)N[C@H](C(C)C)C(=O)N5CCC[C@H]5C(=O)N(C)CC(=O)N(C)[C@@H](C(C)C)C(=O)O[C@@H]4C)c3nc-2c(C(=O)N[C@@H]2C(=O)N[C@H](C(C)C)C(=O)N3CCC[C@H]3C(=O)N(C)CC(=O)N(C)[C@@H](C(C)C)C(=O)O[C@@H]2C)c(N)c1=O` [DACTINOMYCIN] (I: T[dV]P[Sar][NMeV] / II: T[dV]P[Sar][NMeV]; ester I:1-I:C, II:1-II:C; linker I:N-II:N via Actinocin(1to9)), the pIC50 in the test with HeLa [1] is 8.49; with MCF7 [2], 7.32; in the test on A549 [4], 8.10; in the test with Vero [7], 7.96.

`CC1=C(CO)C(=O)O[C@@H]([C@@H](C)[C@H]2CC[C@H]3[C@@H]4C[C@H]5O[C@]56[C@@H](O)CCC(=O)[C@]6(C)[C@H]4CC[C@]23C)C1`: the pIC50 is 4.49 in the test on HeLa [1], 4.91 in the test on MCF7 [2], 4.71 with A549 [4] and 4.62 in the test with Vero [7].

Turning to `CC(=O)OCC1=C(C)C[C@H]([C@@H](C)[C@H]2CC[C@H]3[C@@H]4C[C@H]5O[C@]56[C@@H](O)C=CC(=O)[C@]6(C)[C@H]4CC[C@]23C)OC1=O`, the pIC50 is 4.99 in the test on HeLa [1], 5.34 in the test with MCF7 [2] and 5.23 in the test with Vero [7].

For the compound `CC1=C(CO[Si](C)(C)C(C)(C)C)C(=O)O[C@@H]([C@@H](C)[C@H]2CC[C@H]3[C@@H]4C[C@H]5O[C@]56[C@@H](O)C=CC(=O)[C@]6(C)[C@H]4CC[C@]23C)C1`, the pIC50 was 5.51 in the test with HeLa [1], 5.92 with MCF7 [2], 5.40 with A549 [4] and 6.10 in the test with Vero [7].

In the case of `CC1=C(CO)C(=O)O[C@@H]([C@@H](C)[C@H]2CC[C@H]3[C@@H]4C[C@H](Cl)[C@]5(O)[C@@H](O)C=CC(=O)[C@]5(C)[C@H]4CC[C@]23C)C1`, the pIC50 with HeLa [1] is 4.76; in the test on MCF7 [2], 5.10; in the test on A549 [4], 4.79.
